In US20250197799A1, “CELLS DERIVED FROM POLYPEDILUM VANDERPLANKI AND ODOR SENSOR EQUIPPED THEREWITH” (University of Maryland, College Park, priority 2022, published 2025):

Tests used:
[1] = molecular target: T1, Orco and Or47a (Drosophila melanogaster, UniProt P81921+Q9VNB5); assay: Fluorescence on stimulation of Pv11 transient expression strain (GCaMP6f, Orco, Or47a); type: cell-based; conditions: fluorescence microscope, DMSO negative control
T1 construct: expressed in transfected cells; host or cells: Pv11 cells (Polypedilum vanderplanki)
T1 sequence (Q9VNB5 1-486): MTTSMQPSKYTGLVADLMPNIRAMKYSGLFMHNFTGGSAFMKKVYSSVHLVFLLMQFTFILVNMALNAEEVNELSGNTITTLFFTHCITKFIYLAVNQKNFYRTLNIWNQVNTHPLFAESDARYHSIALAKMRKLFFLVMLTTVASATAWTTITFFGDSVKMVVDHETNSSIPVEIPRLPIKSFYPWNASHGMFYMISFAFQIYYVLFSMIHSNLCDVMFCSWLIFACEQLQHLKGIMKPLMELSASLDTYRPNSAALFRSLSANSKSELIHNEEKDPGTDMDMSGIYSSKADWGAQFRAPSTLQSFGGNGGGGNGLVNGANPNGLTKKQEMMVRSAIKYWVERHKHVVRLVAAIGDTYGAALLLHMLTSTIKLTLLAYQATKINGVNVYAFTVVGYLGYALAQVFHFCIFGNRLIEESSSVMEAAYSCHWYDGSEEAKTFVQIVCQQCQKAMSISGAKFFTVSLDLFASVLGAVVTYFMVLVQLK
T1 sequence (P81921 1-385): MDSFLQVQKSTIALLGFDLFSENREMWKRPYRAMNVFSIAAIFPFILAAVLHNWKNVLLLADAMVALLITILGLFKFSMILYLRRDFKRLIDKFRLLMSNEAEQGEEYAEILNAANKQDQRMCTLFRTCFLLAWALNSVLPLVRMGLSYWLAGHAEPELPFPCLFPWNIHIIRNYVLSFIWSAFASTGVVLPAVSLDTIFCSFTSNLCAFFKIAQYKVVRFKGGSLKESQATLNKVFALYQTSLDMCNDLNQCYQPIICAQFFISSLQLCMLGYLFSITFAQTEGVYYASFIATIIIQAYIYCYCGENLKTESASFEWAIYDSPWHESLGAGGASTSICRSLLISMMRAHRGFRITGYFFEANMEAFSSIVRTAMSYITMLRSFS
Description: 1. Transient expression strain preparation. GCaMP6f cDNA was amplified by PCR in a conventional manner, and a pPv121-GcaMP6f vector was produced by inserting the amplified DNA sequence (SEQ ID NO: 2) encoding GcaMP6f downstream of a 121 promoter of a pPv121-MCS vector (Tokumoto et. Al., doi: https://doi. Org/10.1101/2020.05.29.123570 “Development of a Tet-On inducible expression system for the anhydrobiotic cell line, Pv11”). Similarly, the cDNA of Orco derived from Drosophila melanogaster was amplified by PCR by a conventional method, and a pPv121-Orco vector was generated by inserting the amplified Orco-encoding DNA sequence (SEQ ID NO:3) downstream of the 121 promoter of the pPv121-MCS vector. […]
The resulting pPv121-GcaMP6f vector, pPv121-Orco vector, and pPv121-Or47a vector were simultaneously transfected to Pv11 cells (see Miyata Y., et. Al, Scientific Reports, 9 (1), 7004. (2019)), and a Pv11 transient expression strain was produced that transiently expressed the GaMP6f, Orco, and Or47a proteins. If the membrane proteins Orco and Or47a were expressed and GcaMP6f was expressed in the cytoplasm, then by stimulating Pv11 transient expression strains with Orco or Or47a agonists or ligands, calcium ion influxed into the cells, and the fluorescence of GcaMP6f was observed. […]

[2] = molecular target: T2, Orco-Or47a (Drosophila melanogaster, UniProt P81921+Q9VNB5); assay: Response of BAM-immobilized Orco-Or47a stable expression cell line; type: cell-based; parameters: remnant residues; expressed in transfected cells; host or cells: Pv11 cells (Polypedilum vanderplanki), CRIS-PITCh knock-in at the Pv.00443 locus downstream of the 121 promoter, Zeocin selection and single-cell sorting; conditions: Pv11-GCaMP6f-Orco-Or47a stable expression cell line immobilized with BAM
T2 sequence (Q9VNB5 1-486): T1 sequence (Q9VNB5 1-486)
T2 sequence (P81921 1-385): T1 sequence (P81921 1-385)
Description: 8.1 Pv11 cell immobilization. A cell membrane modifier (BAM: Biocompatible Anchor for cell Membrane) was used to fix the stable expression cell line obtained above. BAM consists of a hydrophilic PEG chain, an NHS group, and a hydrophobic oleyl group; by bringing BAM into contact with a collagen-coated dish, the NHS group binds to collagen, and the oleyl group interacts with the cell membrane through hydrophobic interactions, allowing cells to adhere. BAM (SUNBRIGHT OE-040CS, Yuka Sangyo Co., Ltd.) was dissolved in DMSO (Fujifilm Wako Pure Chemical Industries) to a concentration of 10 mM. The 10 mM BAM solution was adjusted to DPBS(-) (Thermo Fisher) to a final concentration of 100 μM, 100 μl was dropped onto a collagen 1-coated 48-well microplate (IWAKI) and incubated at 37° C. for 1 hour. The BAM solution was removed, washed once with DPBS(-) (Thermo Fisher) and five times with MilliQ, and allowed to stand still to evaporate water droplets. The Pv11 cell suspension was centrifuged at 700 g for 3 minutes, the supernatant was removed, the cell pellet was suspended in DPBS(-) (Thermo Fisher) and dropped onto a BAM-coated dish. […]
8.2 Functional confirmation of exogenous membrane proteins in fixed cells. […] Each substance was reacted with each cell in the same manner as in 3.2 above, and the fluorescence intensity was measured. […]

CCc1ccc(NC(=O)CSc2nnc(-c3cccnc3)n2CC)cc1 [VUAA1, N-(4-ethylphenyl)-2-{[4-ethyl-5-(pyridin-3-yl)-4H-1,2,4-triazol-3-yl]sulfanyl}acetamide]
fluorescence of GCaMP6f on stimulation [1]: fluorescence was observed | response (fluorescence intensity) of immobilized cells [2]: responded

CCCCCOC(C)=O [pentyl acetate]
fluorescence of GCaMP6f on stimulation [1]: fluorescence was observed | response (fluorescence intensity) of immobilized cells [2]: responded
